Reference: US20040209778A1, “Lactone derivative, and plant growth regulator and rooting agent each containing the same as active ingredient” (priority 2001, published 2004)

Assays:
[1] = system: adventitious roots of Bupleurum falcatum L.; experiment: Rooting test using Bupleurum falcatum L. (1); format: cell-based; details: for Weight of Freeze-dried Roots: day 24, 0.2 g roots planted
Experimental: In order to evaluate rooting activity, adventitious roots of Bupleurum falcatum L. were employed. The adventitious roots were obtained by growing the roots of aseptic seedlings by use of IBA. The developed roots were cultured at 23° C. in a B5 liquid medium containing 5 mg/L IBA (for 3 weeks) and in the corresponding B5 liquid medium with no IBA (for 6 weeks) in an alternate manner. The inoculation amount of the roots was 5 g/L, the incubation temperature was 23° C., and subculture was performed in the dark under shaking conditions of 100 rpm. In the rooting test, adventitious roots cultured in IBA-free medium were employed. B5 medium (30-mL) was placed in a 100 mL flask, followed by planting of the roots of Bupleurum falcatum L. (0.2 g) under aseptic conditions. The present lactone derivative, prepared in 10,000 ppm, was added to the flask so as to attain the concentration of 4 ppm or 8 ppm. A sample containing a 4 ppm (final concentration) IBA solution and a sample containing a 8 ppm (final concentration) IBA solution were employed as positive controls, and a corresponding IBA-free sample was employed as a control. Respective samples were cultured under shaking at 100 rpm at 23° C. in the dark, and on day 24, the extent of rooting was checked. The roots were freeze-dried and the weight thereof was measured.

[2] = system: adventitious roots of Bupleurum falcatum L.; experiment: Rooting test using Bupleurum falcatum L. (2); format: cell-based; details: for Number of Lateral Roots: per unit length (2 cm) of planted root, average of 3 measurements
Experimental: In order to evaluate rooting activity, adventitious roots of Bupleurum falcatum L. were employed. The adventitious roots were obtained by growing the roots of aseptic seedlings by use of IBA. The developed roots were cultured at 23° C. in a B5 liquid medium containing 5 mg/L IBA (for 3 weeks) and in the corresponding B5 liquid medium with no IBA (for 6 weeks) in an alternate manner. The inoculation amount of the roots was 5 g/L, the incubation temperature was 23° C., and subculture was performed in the dark under shaking conditions of 100 rpm.
In the rooting test, adventitious roots cultured in IBA-free medium were employed. B5 medium (30-mL) was placed in a 100 mL flask, followed by planting of the roots of Bupleurum falcatum L. (0.2 g) under aseptic conditions. The present lactone derivative, prepared in 10,000 ppm, was added to the flask so as to attain the concentration of 4 ppm or 8 ppm. A sample containing a 4 ppm (final concentration) IBA solution and a sample containing a 8 ppm (final concentration) IBA solution were employed as positive controls, and a corresponding IBA-free sample was employed as a control. Respective samples were cultured under shaking at 100 rpm at 23° C. in the dark, and on day 24, the extent of rooting was checked. The roots were freeze-dried and the weight thereof was measured.
The general procedure of the above-described rooting test (1) was followed, except that there were employed, as positive controls, samples containing the novel auxin metabolite (Fb) disclosed in Japanese Patent Application Laid-Open (kokai) No. 10-77268, at 4 ppm and 8 ppm (both final concentration).
The number of lateral roots was determined by averaging 3 measurements of the number of the lateral roots appearing per unit length (2 cm) of the planted root.

SMILES	Weight of Freeze-dried Roots ([1]; 4 ppm final concentration) [g]	Weight of Freeze-dried Roots ([1]; 8 ppm final concentration) [g]	rooting activity ([1]; 4 ppm and 8 ppm, compared with IBA as positive control)	rooting activity ([2]; 4 ppm and 8 ppm, compared with Fb as positive control)	Weight of Freeze-dried Roots ([2]; 4 ppm final concentration) [g]	Number of Lateral Roots ([2]; 4 ppm final concentration)	Weight of Freeze-dried Roots ([2]; 8 ppm final concentration) [g]	Number of Lateral Roots ([2]; 8 ppm final concentration)
O=C1CCC(c2cc3ccccc3o2)O1 (stereo not drawn) [Compound 1, 5-(1-Benzofuran-2-yl)dihydro-2(3H)-furanone]	0.37	0.35						
O=C1CCC(c2csc3ccccc23)O1 (stereo not drawn) [Compound 2, 5-(1-Benzothiophen-3-yl)dihydro-2(3H)-furanone]	0.36	0.41	rooting activity stronger than IBA	rooting activity stronger than Fb	0.31	30.0	0.45	43.3
O=C(O)CCCc1c[nH]c2ccccc12 [IBA, indolebutyric acid, reference compound]	0.31	0.37						
